Laboratory results reported in patent USRE47689E1, “Compounds for treating spinal muscular atrophy” (PTC Therapeutics, Inc., priority 2011, dated 2019).

What was measured:
[1] = system: SMN2 minigene (full length SMN2 minigene mRNA containing SMN2 exon 7); test: SMN2 minigene mRNA splicing RT-qPCR assay in cultured cells; type: cell-based, human; conditions: HEK293H cells stably transfected with SMN2-A minigene, 24 hours, 7-point concentration curve, 1.5-fold relative to vehicle-treated cells; for EC (1.5-fold): Homo sapiens, HEK293-H, read-out: EC1.5x for production of full length SMN2 mRNA
Method: The reverse transcription-quantitative PCR-based (RT-qPCR) assay is used to quantify the level of the full length SMN2 minigene mRNA containing SMN2 exon 7 in a HEK293H cell line stably transfected with said minigene and treated with a test compound.
Protocol. HEK293H cells stably transfected with the SMN2-A minigene construct described above (10,000 cells/well) are seeded in 200 μL of cell culture medium (DMEM plus 10% FBS, with 200 μg/mL hygromycin) in 96-well flat-bottom plates and the plate is immediately swirled to ensure proper dispersal of cells, forming an even monolayer of cells. Cells are allowed to attach for at least 4-6 hours. […] A solution of test compound (1 μL, 200× in DMSO) is added to each cell-containing well and the plate is incubated for 24 hours in a cell culture incubator (37° C., 5% CO2, 100% relative humidity). 2 replicates are prepared for each test compound concentration. The cells are then lysed in Cells-To-Ct lysis buffer and the lysate is stored at −80° C.
The combination of these three oligonucleotides detects only SMN1 or SMN2 minigenes (RT-qPCR) and will not detect endogenous SMN1 or SMN2 genes.
The SMN forward and reverse primers are used at final concentrations of 0.4 μM.
The SMN2-minigene GAPDH mix (15 μL total volume) is prepared by combining 7.5 μL of 2×RT-PCR buffer, 0.4 μL of 25×RT-PCR enzyme mix, 0.75 μL of 20×GAPDH primer-probe mix, 4.0075 μL of water, 2 μL of 10-fold diluted cell lysate, 0.06 μL of 100 μM SMN forward primer, 0.06 μL of 100 μM SMN reverse primer, and 0.225 μL of 100 μM SMN probe.
PCR is carried out at the following temperatures for the indicated time: Step 1: 48° C. (15 min); Step 2: 95° C. (10 min); Step 3: 95° C. (15 sec); Step 4: 60° C. (1 min); then repeat Steps 3 and 4 for a total of 40 cycles.
Each reaction mixture contains both SMN2-A minigene and GAPDH primers/probe sets (multiplex design), allowing simultaneous measurement of the levels of two transcripts.
Two SMN spliced products are generated from the SMN2 minigene. The first spliced product containing exon 7, corresponding to full length SMN2 mRNA, is called SMN2mini FL. The second one lacking exon 7 is called SMN2mini Δ7.
The amplification efficiency E is calculated from the slope of the amplification curve for SMN2mini FL and GAPDH individually. The abundances of SMN2mini FL and GAPDH are then calculated as […], where Ct is the threshold value for each amplicon. The abundance of SMN2mini FL is normalized to GAPDH abundance. The normalized SMN2mini FL abundance from test compound-treated samples is then divided by normalized SMN2mini FL abundance from vehicle-treated cells to determine the level of SMN2 FL mRNA relative to vehicle control.
An EC1.5x for production of full length SMN2 mRNA between >3 μM and ≤30 μM is indicated by one star (*), an EC1.5x between >1 μM and ≤3 μM is indicated by two stars (**), an EC1.5x between >0.3 μM and ≤1 μM is indicated by three stars (***), an EC1.5x between >0.1 μM and ≤0.3 μM is indicated by four stars (****) and an EC1.5x≤0.1 μM is indicated by five stars (*****).

Smn protein = Smn protein assay in cultured cells (SMN HTRF); type: cell-based, human; conditions: 48 hours; for EC1.5x (concentration giving 1.5-fold Smn protein increase): SMA Type 1 patient fibroblast cells (GM03813), 7-point concentration curve, SMN HTRF, concentration producing 1.5 times Smn protein vs DMSO vehicle control, read-out: EC1.5x for Smn protein expression; for maximum fold (Fold) increase of Smn protein: SMA patient fibroblast cells, 7-point concentration data, fold increase relative to vehicle control (SMN HTRF)
Method: The SMN HTRF (homogeneous time resolved fluorescence) assay is used to quantify the level of Smn protein in SMA patient fibroblast cells treated with test compounds.
Protocol. Cells are thawed and cultured in DMEM-10% FBS for 72 hours. Cells are trypsinized, counted and resuspended to a concentration of 25,000 cells/mL in DMEM-10% FBS. […] 1 μL of test compound solution is transferred to cell-containing wells and cells are incubated for 48 hours in a cell culture incubator (37° C., 5% CO2, 100% relative humidity). Triplicate samples are set up for each test compound concentration. After 48 hours, the supernatant is removed from the wells and 25 μL of the RIPA lysis buffer, containing protease inhibitors, is added to the wells and incubated with shaking at room temperature for 1 hour. 25 μL of the diluent is added and then 35 μL of the resulting lysate is transferred to a 384-well plate, where each well contains 5 μL of the antibody solution (1:100 dilution of anti-SMN d2 and anti-SMN kryptate in SMN reconstitution buffer). The plate is centrifuged for 1 minute to bring the solution to the bottom of the wells, then incubated overnight at room temperature. Fluorescence for each well of the plate at 665 nm and 620 nm is measured on an EnVision multilabel plate reader (Perkin-Elmer).
The normalized fluorescence signal is calculated for each sample, Blank and vehicle control well by dividing the signal at 665 nm by the signal at 620 nm. Normalizing the signal accounts for possible fluorescence quenching due to the matrix effect of the lysate. The ΔF value (a measurement of Smn protein abundance) for each sample well is calculated by subtracting the normalized average fluorescence for the Blank control wells from the normalized fluorescence for each sample well and then dividing this difference by the normalized average fluorescence for the Blank control wells. The resulting ΔF value for each sample well represents the Smn protein abundance from test compound-treated samples. The ΔF value for each sample well is divided by the ΔF value for the vehicle control wells to calculate the fold increase in Smn protein abundance relative to the vehicle control.
An EC1.5x for Smn protein expression between >3 μM and ≤10 μM is indicated by one star (*), an EC1.5x between >1 and ≤3 μM is indicated by two stars (**), an EC1.5x between >0.3 μM and ≤1 μM is indicated by three stars (***) and an EC1.5x≤0.3 μM is indicated by four stars (****).

Structure (SMILES) | EC (1.5-fold) [1] | EC1.5x (concentration giving 1.5-fold Smn protein increase) (Smn protein) | maximum fold (Fold) increase of Smn protein (Smn protein) | EC1.5x for production of full length SMN2 mRNA [1]
Cc1cn2cc(-c3cc4ccc(N5CC6(CNC6)C5)cc4oc3=O)cc(F)c2n1 [Compound 985, 7-(2,6-diazaspiro[3.3]hept-2-yl)-3-(8-fluoro-2-methylimidazo[1,2-a]pyridin-6-yl)-2H-chromen-2-one] | < 0.1 µM | < 300 nM | ***** (fold increase >1.65) | –
Cc1cn2cc(-c3cc4ccc(OCCN5CC[C@H](O)C5)cc4oc3=O)nc2c(C)n1 [Compound 954, 3-(6,8-dimethylimidazo[1,2-a]pyrazin-2-yl)-7-{2-[(3S)-3-hydroxypyrrolidin-1-yl]ethoxy}-2H-chromen-2-one] | < 0.1 µM | < 300 nM | ***** (fold increase >1.65) | –
CCCN1CCN(c2ccc3cc(-c4cc5ccccn5n4)c(=O)oc3c2)CC1 [Compound 195, 7-(4-propylpiperazin-1-yl)-3-(pyrazolo[1,5-a]pyridin-2-yl)-2H-chromen-2-one] | 1 to 3 µM | – | * (maximum fold increase of ≤1.2) | –
Cc1cn2cc(-c3cc4c(F)cc(N5CCN[C@@H](C)C5)cc4oc3=O)nc2cn1 [Compound 593, 5-fluoro-3-(6-methylimidazo[1,2-a]pyrazin-2-yl)-7-[(3S)-3-methylpiperazin-1-yl]-2H-chromen-2-one] | < 0.1 µM | < 300 nM | ***** (fold increase >1.65) | –
Cc1cn2cc(-c3cc4ccc(N5CCC(N)CC5)cc4oc3=O)cc2c(C)n1 [Compound 714, 7-(4-aminopiperidin-1-yl)-3-(1,3-dimethylpyrrolo[1,2-a]pyrazin-7-yl)-2H-chromen-2-one] | 0.1 to 0.3 µM | – | * (maximum fold increase of ≤1.2) | –
Cc1cn2cc(-c3cc4ccc(N5CCN[C@@H](C)C5)cc4oc3=O)nc2c(C)n1 [Compound 537, 3-(6,8-dimethylimidazo[1,2-a]pyrazin-2-yl)-7-[(3S)-3-methylpiperazin-1-yl]-2H-chromen-2-one] | < 0.1 µM | < 300 nM | ***** (fold increase >1.65) | –
CCN1CCCN(c2ccc3cc(-c4cn5cc(C)ncc5n4)c(=O)oc3c2)CC1 [Compound 618, 7-(4-ethyl-1,4-diazepan-1-yl)-3-(6-methylimidazo[1,2-a]pyrazin-2-yl)-2H-chromen-2-one] | < 0.1 µM | < 300 nM | **** (fold increase between >1.5 and ≤1.65) | –
Cc1cn2cc(-c3cc4ccc(N5C[C@H]6CCCN(C)[C@H]6C5)cc4oc3=O)nc2c(C)n1 [Compound 782, 3-(6,8-dimethylimidazo[1,2-a]pyrazin-2-yl)-7-[(4aR,7aR)-1-methyloctahydro-6H-pyrrolo[3,4-b]pyridin-6-yl]-2H-chromen-2-one] | – | < 300 nM | **** (fold increase between >1.5 and ≤1.65) | ***** (EC1.5x≤0.1 μM)
Cc1cn2cc(-c3cc4c(F)cc(N5CCN(C)[C@@H](C)C5)cc4oc3=O)nc2cn1 [Compound 659, 7-[(3S)-3,4-dimethylpiperazin-1-yl]-5-fluoro-3-(6-methylimidazo[1,2-a]pyrazin-2-yl)-2H-chromen-2-one] | < 0.1 µM | < 300 nM | **** (fold increase between >1.5 and ≤1.65) | –
Cc1nc(Cl)cn2cc(-c3cc4ccc(N5C[C@@H]6C[C@H]5CN6C)cc4oc3=O)nc12 [Compound 787, 3-(6-chloro-8-methylimidazo[1,2-a]pyrazin-2-yl)-7-[(1S,4S)-5-methyl-2,5-diazabicyclo[2.2.1]hept-2-yl]-2H-chromen-2-one] | < 0.1 µM | 300 to 1000 nM | *** (fold increase between >1.35 and ≤1.5) | –
Cc1cn2cc(-c3cc4ccc(N5C[C@@H](C)N[C@@H](C)C5)cc4oc3=O)nc2c(C)n1 [Compound 517, 3-(6,8-dimethylimidazo[1,2-a]pyrazin-2-yl)-7-[(3R,5S)-3,5-dimethylpiperazin-1-yl]-2H-chromen-2-one] | < 0.1 µM | < 300 nM | ***** (fold increase >1.65) | –
O=C(O)C(F)(F)F.O=c1oc2cc(N3CCNCC3)ccc2cc1-c1nc2c(C(F)(F)F)cccc2o1 [Compound 1, 7-(piperazin-1-yl)-3[4-(trifluoromethyl)-1,3-benzoxazol-2-yl]-2H-chromen-2-one trifluoroacetate] | 0.3 to 1 µM | – | * (maximum fold increase of ≤1.2) | –
Cc1cn2cc(-c3cc4ccc(N5CCC(O)CC5)cc4oc3=O)nc2c(C)n1 [Compound 975, 3-(6,8-dimethylimidazo[1,2-a]pyrazin-2-yl)-7-(4-hydroxypiperidin-1-yl)-2H-chromen-2-one] | 0.3 to 1 µM | – | *** (fold increase between >1.35 and ≤1.5) | –
Cc1cn2cc(-c3cc4ccc(N5CCN[C@H](C)C5)cc4oc3=O)nc2cn1 [Compound 570, 3-(6-methylimidazo[1,2-a]pyrazin-2-yl)-7-[(3R)-3-methylpiperazin-1-yl]-2H-chromen-2-one] | < 0.1 µM | < 300 nM | ***** (fold increase >1.65) | –
CN(C)CCN(C)c1ccc2cc(-c3nc4ccccc4o3)c(=O)oc2c1 [Compound 49, 3-(1,3-benzoxazol-2-yl)-7-{[2-(dimethylamino)ethyl](methyl)amino}-2H-chromen-2-one] | 3 to 30 µM | – | * (maximum fold increase of ≤1.2) | –
